Experimental data: paper PMC6277198, “Molecular basis for activation of lecithin:cholesterol acyltransferase by a compound that increases HDL cholesterol” (eLife, 2018)
Where a chain is given by its changes, count along the chain named. Entries after “also recorded” stand apart in the source; their conditions may differ.

How the values were obtained:
[1] = molecular target: T1, WT LCAT (Homo sapiens, UniProt P04180); assay: MST binding assay; set-up: hydrolysis of 4-methylumbelliferyl palmitate (MUP) by full-length LCAT; made in house; host or cells: HEK293F (transient transfection, secreted)
T1 sequence (P04180 25-440): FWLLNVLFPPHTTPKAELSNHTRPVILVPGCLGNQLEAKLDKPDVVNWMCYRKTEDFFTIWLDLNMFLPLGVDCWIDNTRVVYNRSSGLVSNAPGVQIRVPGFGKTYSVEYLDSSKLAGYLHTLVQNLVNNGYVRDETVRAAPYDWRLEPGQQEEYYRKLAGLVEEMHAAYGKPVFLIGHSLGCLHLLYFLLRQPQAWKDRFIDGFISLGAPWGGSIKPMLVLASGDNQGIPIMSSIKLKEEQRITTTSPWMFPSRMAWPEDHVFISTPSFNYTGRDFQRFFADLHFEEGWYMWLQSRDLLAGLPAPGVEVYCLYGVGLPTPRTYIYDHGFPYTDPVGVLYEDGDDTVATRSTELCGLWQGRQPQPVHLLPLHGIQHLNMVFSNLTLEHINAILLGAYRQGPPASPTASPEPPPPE
Protocol: MST was used to determine the binding affinity of the compounds to LCAT. Recombinant proteins were labeled with a fluorophore using the Monolith His-tag labeling RED-Tris-NTA 2nd Generation kit following manufacturer’s protocol. Compounds were titrated in a two-fold dilution series starting at 20 μM and incubated with the same volume of 100 nM labeled recombinant protein for 5 min at room temperature. Measurements were carried out in PBS containing 0.05% Tween-20 and standard capillaries using a Monolith NT.115 instrument (Nanotemper Technologies) with 50% LED excitation power, 60% MST power, MST on-time of 30 s and off-time of 5 s. Kd values were calculated by fitting the thermophoresis signal at 20 s of the thermograph using MO.AffinityAnalysis software.

[2] = system: LPLA2 chimeric variants (S33Y, I53G, and S33Y/I53G); assay: Differential scanning fluorimetry; format: binding
[3] = molecular target: T2, LCAT R244H (Homo sapiens, UniProt P04180, R268H); assay: Differential scanning fluorimetry; format: binding; conditions: addition of compound 1
T2 construct: hydrolysis of 4-methylumbelliferyl palmitate (MUP) by full-length LCAT; made in house; host or cells: HEK293F (transient transfection, secreted)
T2 sequence (P04180 25-440 R268H): T1 sequence (P04180 25-440) with R244H
Protocol: (§1) Tm values were determined using an Applied Biosystems QuantStudio 7 Flex qPCR machine with two replicates performed at least in triplicate. LCAT at 0.05 mg mL^−1 was diluted into reaction buffer containing 5X Sypro Orange in a final volume of 10 μL in 384-well PCR plates. DMSO or compound 1 was added so that all reactions contained 3% DMSO. The reactions were run from 25–95 °C with a ramp rate of 0.03 °C s^−1. Tm values were determined as the derivative using Protein Thermal Shift software. Significance was determined using a one-way analysis of variance followed by Tukey’s multiple comparisons post-test in GraphPad Prism.

[4] = molecular target: T3, LCAT R244A (Homo sapiens, UniProt P04180, R268A); assay: Differential scanning fluorimetry; format: binding; conditions: addition of compound 1
T3 construct: hydrolysis of 4-methylumbelliferyl palmitate (MUP) by full-length LCAT; made in house; host or cells: HEK293F (transient transfection, secreted)
T3 sequence (P04180 25-440 R268A): T1 sequence (P04180 25-440) with R244A
Protocol: as §1

Kd ([1]; read-out: Kd, binding to LCAT via microscale thermophoresis)	∆Tm [3]	∆Tm [4]	SMILES	Binding to WT LCAT by MST [1]	Thermal stabilization (DSF) [2]
100 ± 14 nM	4.8 ˚C	6.0 ˚C	N#Cc1cnc(N2CCC(c3n[nH]c4c3C(O)(C(F)(F)F)CC(=O)N4)CC2)cc1C(F)(F)F (stereo not drawn) [compound 1, 6-(4-(4-Hydroxy-6-oxo-4-(trifluoromethyl)−4,5,6,7-tetrahydro-1H-pyrazolo[3,4-b]pyridin-3-yl)piperidin-1-yl)−4-(trifluoromethyl)nicotinonitrile]	does	unable to be stabilized
–	–	–	O=C1CC(O)(C(F)(F)F)c2c(ncn2C2CCNCC2)N1 (stereo not drawn) [compound 6, 7-Hydroxy-1-(piperidin-4-yl)−7-(trifluoromethyl)−6,7-dihydro-1H-imidazo[4,5-b]pyridin-5(4H)-one]	does not bind; also recorded: unable to bind	–
